Reference: EP2431033A1, “Dronedarone for preventing cardiovascular hospitalization or mortality in patients with lone atrial fibrillation” (SANOFI, priority 2010, dated 2012)

Assays:
patients with lone AF = test: Post-hoc analysis of EURIDIS, ADONIS and ATHENA trials, patients with lone AF; assay type: in vivo; conditions: for Number of patients with endpoint (lone AF): first cardiovascular hospitalization or death from any cause
Description: (§1) The present invention is illustrated by data from a post-hoc analysis of patients with lone atrial fibrillation enrolled in the clinical trials called EURIDIS, ADONIS and ATHENA trials with the following endpoints: • cardiovascular hospitalization or death from any cause • cardiovascular hospitalization • all cause mortality • cardiovascular mortality
(§2) Individual data from patients with lone AF enrolled in the EURIDIS, ADONIS and ATHENA trials were entered in a central database. (SAS version 8.2). The institutional review board at each site approved the study, and all patients gave written informed consent for taking part in the studies. In short, common enrolment criterion for these studies was the presence of paroxysmal or persistent AF. Patients with permanent AF or with unstable hemodynamic conditions were excluded from participation.
(§3) Lone AF was defined as AF occurring in patients without structural heart disease or arterial hypertension hypertension (not treated with blood pressure lowering medications), and without extracardiac diseases associated with AF (i.e. thyroid disorders).
(§4) In all 3 studies, patients were randomly assigned to double-blind treatment with dronedarone 400 mg BID or matching placebo. Hospitalisation was defined as at least one overnight stay. The main outcome measure of this post-hoc analysis was the time to the composite endpoint of first hospitalization for cardiovascular reasons or death from any cause, and their individual components.
(§5) Baseline parameters of patients with and without lone AF were compared with logistic regression analysis for qualitative and an ANOVA test for quantitative variables. All outcomes were estimated with the use of the Kaplan-Meier method and compared by means of the log-rank test. […] All P values are two-tailed, and statistical significance was assumed at a p-value of 0.05 or smaller.
(§6) The results obtained in this trial were analysed by the Kaplan Meier method for the figures, and the relative risk (RR) was estimated using Cox's proportional-effect regression model.
(§7) The relative risk (RR) is the ratio of the rates of occurrence of a hospitalization or of a death among the patients on dronedarone, relative to the patients on placebo.

patients without lone AF = test: Post-hoc analysis of EURIDIS, ADONIS and ATHENA trials, patients without lone AF; assay type: in vivo
Description: as §1, §2, §3, §4, §5, §6, §7

[1] = first cardiovascular hospitalization, patients with lone AF at baseline, 400mg BID
[2] = patients with lone AF, compared to placebo, x = 1-relative risk
[3] = first cardiovascular hospitalization, patients without lone AF at baseline, 400mg BID

SMILES: CCCCc1oc2ccc(NS(C)(=O)=O)cc2c1C(=O)c1ccc(OCCCN(CCCC)CCCC)cc1 [Dronedarone, 2-n-Butyl-3-[4-(3-di-n-butylaminopropoxy)benzoyl]-5-methylsulphonamidobenzofuran]
- Number of patients with endpoint (lone AF) (patients with lone AF; ADONIS, 400mg BID, N=64): 1 (N=64)
- Number of patients with endpoint (lone AF) (patients with lone AF; ATHENA, 400mg BID, N=95): 26 (N=95)
- Number of patients with endpoint (lone AF) (patients with lone AF; EURIDIS, 400mg BID, N=81): 7 (N=81)
- Number of patients with endpoint (lone AF) (patients with lone AF; Lone AF population (3 studies pooled), 400mg BID, N=240): 34 (N=240)
- Cumulative incidence of events at 1 year (patients with lone AF; [1]): 0.113
- Cumulative incidence of events at 2 years (patients with lone AF; [1]): 0.195
- Cumulative incidence of events at 6 months (patients with lone AF; [1]): 0.057
- Relative risk (patients with lone AF; first cardiovascular hospitalization, patients with lone AF at baseline, vs placebo, cause-specific Cox regression model adjusted on studies): 0.543
- risks for adverse events between placebo and dronedarone (patients with lone AF; independent from the AF type): No difference
- cardiovascular hospitalisations for AF or other supraventricular arrhythmias (patients with lone AF; lone AF, dronedarone group, out of all cardiovascular hospitalisations): 16 of 30
- All-cause mortality (HR) (patients with lone AF; lone AF, dronedarone vs placebo, 95%CI=0.31-3.43, p=0.885): 1.02
- cardiovascular hospitalizations alone, HR (patients with lone AF; patients with lone AF, compared to placebo, 95%CI=0.34-0.87, p=0.004): 0.54
- cardiovascular hospitalizations or death, hazard ratio (HR) (patients with lone AF; patients with lone AF, compared to placebo, 95%CI=0.36-0.88, p=0.004): 0.56
- reduction in cardiovascular hospitalizations alone (patients with lone AF; [2]): 46%
- reduction of cardiovascular hospitalizations or death (patients with lone AF; [2]): 44%
- drug discontinuation rate (patients with lone AF; patients with lone AF, dronedarone arm vs placebo arm): similar
- Cumulative incidence of events at 1 year (patients without lone AF; [3]): 0.208
- Cumulative incidence of events at 2 years (patients without lone AF; [3]): 0.321
- Cumulative incidence of events at 6 months (patients without lone AF; [3]): 0.135
- Relative risk (patients without lone AF; first cardiovascular hospitalization, patients without lone AF at baseline, vs placebo, cause-specific Cox regression model adjusted on studies): 0.758
- reduction of the risk of CV hospitalizations or death (patients without lone AF; patients with other forms of AF): 23%
- drug discontinuation (patients without lone AF; patients with other forms of AF, dronedarone arm vs placebo arm): more often
